“Also recorded” adds a separate entry of the source. Where two headings read alike, the source gives them in different places. Square brackets hold non-standard residues; d marks the D form. Peptide text beside a SMILES is read from it. pS = N[C@@H](COP(=O)(O)O)C(=O)O
Assays:
male ICR Swiss mice = test: Example VI: subcutaneous PO4-ASARM-peptide or etidronate, calcein fluorescence and Sanderson osteoid staining; assay type: in vivo; settings: PO4-ASARM-peptide 2 mg/kg/day
Description: Subcutaneous administration of PO4-ASARM-peptide, etidronate (EHDP), and calcein. Three separate groups of male ICR Swiss mice (4-5 weeks) were subcutaneously injected once a day (9:00AM), for 12 days except for days 6 and 7 with 50 μL solutions of either (1) Eitidronate (EHDP) (10 mg/kg/day); (2) PO4-ASARM-peptide (2 mg/kg/day); or (3) vehicle consisting of 5 mM HEPES pH 7.4/150 mM NaCL/0.1% BSA. The synthetic PO4-ASARM-peptide was dissolved in vehicle (1.0 mg/mL). Etidronate was first dissolved in 150 mM NaCl and then buffered to pH 7.5 with 1M NaOH to give a 5 mg/mL solution. The 10 mg/kg/day doses of etidronate have previously been reported to inhibit mineralization in rats and were used as positive controls (Trechsel, et al., Am J Physiol 232(3):E298-305, 1977; Bonjour, et al., Am J Physiol 229(2):402-8, 1975). All three groups were subcutaneously injected with calcein (20 mg/kg/day) on days 3, 5, […]. The degree of calcein fluorescence and/or fluorescence-quenching is an indicator of mineralization status (see next section). The calcein injections when given were administered 1 h after the daily injections of PO4-ASARM-peptide, EHDP or vehicle. Animals were then terminated humanely and calvariae plus femurs/tibia were fixed in 70% ethanol (non-decalcified). After fluorescence imaging (see FIG. 35) calvariae were processed in plastic and stained with Sanderson's stain (see below). Five animals per group were used for statistical analysis of fluorescence quenching and histological Sanderson staining.
Calcein fluorescence in mice calvariae, hind-limbs & fluor-imager analysis of mineralization. A Bio-Rad (Hercules, Calif.) FluorImager^max fluorescent imager was used to simultaneously image all the samples from each of the 3 groups (15 animals; five animals per group). This consisted of 10 tibia/femurs and 5 calvariae per group. Samples were placed on top of the FluorImager plate contained within a light-tight box. Ultra-violet light was used to generate calcein-mediated epi-fluorescence and the fluorescent-image was captured on a −40° C., peltier-cooled, 1,340×1040 pixel CCD resolution, CCD digital-camera. Quantitation of fluorescence was carried out using Quantity-1 (Bio-Rad, Hercules, Calif.) fluorescence-software. Pixel saturation was prevented by internal software calibration and exposure adjustment. All fluorescence readings were thus accurately quantitative and non-saturating. Photo-micrographic UV fluorescent analysis of calvarial cross sections embedded in plastic and mounted as slides (<100 micrometer sections) was also undertaken and a description of the fixation and processing is given in the next section.
Sanderson-staining and fluorescence detection of calvarial osteoid & mineralized bone. Staining of non-decalcified calvarial sections was performed using the method described by Sanderson and Bachus (Staining technique to differentiate mineralized and demineralized bone in ground sections, J Histotechnol 20(2): 119-122, 1997). This technique provides differential staining between unmineralized osteoid and mineralized bone. Prior to staining, calvariae were dissected and attached tissue removed. Calvariae were then placed in 70% ethanol for further fixation as described by Sanderson and Bachus (supra). After fixing and processing undecalcified calvariae were embedded in plastic (LR-white acrylic resin (London Resin Co., Reading, England)) as previously described (Garrett, et al., Selective inhibitors of the osteoblast proteasome stimulate bone formation in vivo and in vitro, J Clin Invest 111(11):1771-1782, 2003). Plastic embedded sections were ground to <100 micrometers using a specialized grinding-pestle as described by Donath and Breuner (A method for the study of undecalcified bones and teeth with attached soft tissues. The Sage-Schliff (sawing and grinding) technique, J Oral Pathol 11(4):318-26, 1982). […]

MEPE-PHEX interaction = molecular target: T1, MEPE-PHEX interaction (Homo sapiens, UniProt P78562); test: Surface plasmon resonance, peptide solution competition of secPHEX-MEPE binding
T1 construct: to generate a soluble, secreted form of PHEX; made in house; host or cells: secPHEX: mammalian cells (gift, University of Montreal); MEPE: S. frugiperda insect cells
T1 sequence (P78562 46-749 limits assumed): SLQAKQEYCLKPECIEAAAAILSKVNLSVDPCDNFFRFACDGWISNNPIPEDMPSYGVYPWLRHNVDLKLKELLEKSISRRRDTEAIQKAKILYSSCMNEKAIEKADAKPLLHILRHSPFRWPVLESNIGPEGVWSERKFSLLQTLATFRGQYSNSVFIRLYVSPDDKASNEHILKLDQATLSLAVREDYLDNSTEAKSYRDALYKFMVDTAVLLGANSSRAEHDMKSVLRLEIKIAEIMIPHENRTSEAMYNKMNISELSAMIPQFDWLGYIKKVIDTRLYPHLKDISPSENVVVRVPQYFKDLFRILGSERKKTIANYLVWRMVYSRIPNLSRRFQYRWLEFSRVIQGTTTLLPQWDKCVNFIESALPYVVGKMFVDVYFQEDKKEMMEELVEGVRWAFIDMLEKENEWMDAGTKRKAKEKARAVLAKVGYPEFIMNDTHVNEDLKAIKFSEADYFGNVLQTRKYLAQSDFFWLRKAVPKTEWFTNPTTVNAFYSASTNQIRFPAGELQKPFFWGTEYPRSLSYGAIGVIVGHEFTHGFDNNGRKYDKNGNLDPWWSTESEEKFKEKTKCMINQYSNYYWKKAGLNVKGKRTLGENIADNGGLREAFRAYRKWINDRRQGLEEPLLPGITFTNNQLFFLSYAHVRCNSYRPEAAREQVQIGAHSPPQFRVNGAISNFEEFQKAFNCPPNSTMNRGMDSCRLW
Text: Surface Plasmon Resonance: Synthetic peptides & competitive PHEX-MEPE binding studies. For these experiments CM-5 chips containing flow-cells immobilized with MEPE, PHEX and IgG ligands at 6000 RU were used. Just prior to SPR injection, stock solution of specific-peptide (as defined for each experiment; see Table 1), and dissolved in analyte buffer (HBS-P—Zn) […] The following equation was used to compute KDapp values: RU=Bmax/inhib×(peptide(μM))/KDapp+(peptide(μM)). The Bmax/inh value represents the maximal percentage inhibition change in RU (i.e., PHEX-MEPE binding) relative to the “non-peptide” control (0% inhibition of binding), using a constant analyte flow-solution of secPHEX of 250 nM against immobilized MEPE ligand at 6000 RU. […] The control MEPE-RGD peptide had no effect on MEPE-PHEX interactions.

[1] = tested on: mouse osteoblast cell-line 2T3; test: Mineralized bone matrix formation assay (von Kossa), BMP2-induced; assay type: cell-based; settings: 2T3 cells, BMP2 100 ng/mL; Hu-MEPE 10-800 ng/mL, ASARM-peptide 60 and 300 ng/mL, control peptide 300 ng/mL
Text: Mineralized bone matrix formation assay. A mouse osteoblast cell-line (2T3-cells) were monitored using a mineralized matrix formation assay as described by Bhargava et al. (Ultrastructural analysis of bone nodules formed in vitro by isolated fetal rat calvaria cells. Bone 9:155-63, 1988) and cultured as described previously (Bhargava et al., supra; Chen et al. Differential roles for bone morphogenetic protein (BMP) receptor type IB and IA in differentiation and specification of mesenchymal precursor cells to osteoblast and adipocyte lineages. J Cell Biol 142:295-305, 1998; and Zhao, et al. Bone morphogenetic protein receptor signaling is necessary for normal murine postnatal bone formation. J Cell Biol 157:1049-60, 2002). Mineralization of the murine osteoblastic 2T3 cell-line has been extensively studied using physical techniques, electron microscopy and histological techniques. This cell line (2T3) undergoes exogenous BMP2-induced mineralized-matrix indistinguishable from normal bone-mineral hydroxyapatite in-vitro (Bhargava et al., supra; Chen et al., supra; and Zhao et al., supra). The cells were plated in 24-well culture plates at density of 2×10^4 cells/well and cultured with minimal essential medium (MEM) supplemented with 10% FCS. When the cells reached confluency (day 0), the medium was changed to MEM containing 5% FCS, 100 μg/mL ascorbic acid and 5 mM β-glycerol phosphate with or without 100 ng/mL of BMP-2. The effects of Hu-MEPE, MEPE ASARM-peptide and control peptide at different doses (see results section) in the absence and presence of BMP2 were measured using the von Kossa stain for mineralization. The medium was changed every other day and fresh reagents were added. Von Kossa stain of mineralized bone matrix was performed as follows. The cell cultures were washed with PBS twice, fixed in phosphate buffered formalin for 10 min, and then washed with water, and serially dehydrated in 70%, 95%, and 100% ethanol, twice each and air dried. The plates were rehydrated from 100% to 95% to 80% ethanol to water before staining. The water was removed, a 2% silver nitrate solution was added, and the plates were exposed to sunlight for 20 min, after which the plates were rinsed with water. 5% sodium thiosulfate was added for 3 min and the plates were then rinsed with water. The modified van Gieson stain was then used as a counterstain after the von Kossa stain. The unmineralized collagen matrix can be recognized by the yellow/red van Gieson stain. The acid fuchsin solution (5 part of 1% acid fuchsin, 95 part of picric acid, and 0.25 part of 12 M HCl) was added for 5 min. The plates were washed with water, and then 2×95% ethanol and 2×100% ethanol, and dried for image analysis. The area of von Kossa stained matrix was quantitated as previously described (Chen et al., supra). Briefly matrix was quantified by automated image analysis using a video analysis program (Jandel Scientific, San Rafael Calif.) and also a Bio-Rad (Hercules, Calif.) Quantity-1 image analysis capture program. A video screen camera (CCD/RGB; Sony Corp., Park Ridge, N.J.) linked to a microscope (model BH2; Olympus Corp., Precision Instruments Division, Lake Success, N.Y.) equipped with metallurgical lens was used to image plates.

| Bmax/inh, maximal percentage-inhibition of MEPE-PHEX binding (MEPE-PHEX interaction; 250 nM secPHEX, MEPE 6000 RU) [%] | Kd (MEPE-PHEX interaction; 250 nM secPHEX, MEPE 6000 RU, read-out: apparent KDapp, solution competition of MEPE-PHEX binding) [µM] | Kd (MEPE-PHEX interaction; apparent KDapp, solution competition of secPHEX-MEPE binding, 250 nM secPHEX, MEPE 6000 RU (FIG. 34 legend), heading: apparent KDapp, solution competition of secPHEX-MEPE binding) [µM] | Compound | tibiae-femurs fluorescence-signal reduction relative to vehicle (male ICR Swiss mice) [%] | increase of osteoid layer thickness relative to vehicle (male ICR Swiss mice; etidronate 10 mg/kg/day) [fold] | percentage quenching of calvarial calcein fluorescence relative to vehicle (male ICR Swiss mice; etidronate 10 mg/kg/day) [%] | calvariae calcein fluorescence (male ICR Swiss mice; etidronate 10 mg/kg/day, s.c. 12 days, vehicle 1100.5) | calvarial osteoid relative thickness (Sanderson staining) (male ICR Swiss mice; etidronate 10 mg/kg/day, vehicle 2.3) | tibiae-femurs calcein fluorescent intensity (male ICR Swiss mice; vehicle 268.52) | inhibition of MEPE-PHEX interaction (MEPE-PHEX interaction; peptide pre-mixed with secPHEX, MEPE-RGD up to 85 μM) | effect on BMP2-mediated mineralization (von Kossa staining) [1] |
| --- | --- | --- | --- | --- | --- | --- | --- | --- | --- | --- | --- |
| 68 | 15 | 15 | N=C(N)NCCC[C@H](N)C(=O)N[C@@H](CC(=O)O)C(=O)N[C@@H](CC(=O)O)C(=O)N[C@@H](CO)C(=O)N[C@@H](CO)C(=O)N[C@@H](CCC(=O)O)C(=O)N[C@@H](CO)C(=O)N[C@@H](CO)C(=O)N[C@@H](CC(=O)O)C(=O)N[C@@H](CO)C(=O)NCC(=O)N[C@@H](COP(=O)(O)O)C(=O)N[C@@H](CO)C(=O)N[C@@H](COP(=O)(O)O)C(=O)N[C@@H](CCC(=O)O)C(=O)N[C@@H](COP(=O)(O)O)C(=O)N[C@@H](CC(=O)O)C(=O)NCC(=O)N[C@@H](CC(=O)O)C(=O)O [PO4-ASARM-peptide, RDDSSESSDSG(Sp)S(Sp)E(Sp)DGD] (H-RDDSSESSDSG[pS]S[pS]E[pS]DGD-OH) | 44.5 | 3.5 | 62 | 568.7 fluorescent intensity units | 8.0 | 148.9 | able to inhibit; also recorded: dramatic dose-dependent inhibition |  |
|  |  |  | CGSGYTDLQERGDNDISPFSGDGQPF (Homo sapien) [control peptide, reference compound] |  |  |  |  |  |  |  | failed to elicit any changes in mineralization |

Source: patent US20070099822A1, “Regulation of tissue mineralization and phosphate metabolism by asarm peptides” (priority 2003, published 2007)
